The text below walks through data of paper PMC2254445, “Statistical learning of peptide retention behavior in chromatographic separations: a new kernel-based approach for computational proteomics” (BMC Bioinformatics, 2007).

This data set in a line: Peptide retention time in capillary IP-RP-HPLC with ESI-MS detection. Type of data set: physicochemical. Conditions: vds1 (verified peptides, tryptic digest of protein mixture 1), 50 × 0.2 mm monolithic poly-(styrene/divinylbenzene) column, gradient 0–40% acetonitrile in 0.05% (v/v) aqueous trifluoroacetic acid in 60 min, 55°C, 2 μl/min; for observed retention time: in s (unit assumed); for normalized retention time (NRT): retention times scaled linearly so that TCVADESHAGCEK = 0.1 and MPCTEDYLSLILNR = 0.9. The source says:
The datasets for training and evaluation of the retention time predictor had to fulfill two basic requirements. First, the identity of the studied peptides had to be known with high certainty in order to avoid incorrect sequence annotations for the training dataset, and second, retention times had to be measured with high reproducibility. Altogether, we measured 19 different proteins, which were purchased from Sigma (St. Louis, MO) or Fluka (Buchs, Switzerland). To avoid excessive overlapping of peptides in the chromatographic separations, the proteins were divided into three artificial protein mixtures and subsequently digested using trypsin (Promega, Madison, WI) using published protocols. The protein mixtures contained the following proteins in concentrations between 0.4 – 3.2 pmol/μl:
Mixture 1: β-casein (bovine milk), conalbumin (chicken egg white), myelin basic protein (bovine), hemoglobin (human), leptin (human), creatine phosphokinase (rabbit muscle), α1-acid-glycoprotein (human plasma), albumin (bovine serum). […]
Adding albumin to each protein mixture was performed because in each run, there had to be an identical set of peptides to normalize the retention times. The resulting peptide mixtures were then separated using capillary IP-RP-HPLC and subsequently identified by electrospray ionization mass spectrometry (ESI-MS) as described in detail in [37, 38]. The separations were carried out in a capillary/nano HPLC system (Model Ultimate 3000, Dionex Benelux, Amsterdam, The Netherlands) using a 50 × 0.2 mm monolithic poly-(styrene/divinylbenzene) column (Dionex Benelux) and a gradient of 0–40% acetonitrile in 0.05% (v/v) aqueous trifluoroacetic acid in 60 min at 55°C. The injection volume was 1 μl, and each digest was analyzed in triplicate at a flow rate of 2 μl/min. On-line ESI-MS detection was carried out with a quadrupole ion-trap mass spectrometer (Model esquire HCT, Bruker Daltonics, Bremen, Germany).
Peptides were identified on the basis of their tandem mass spectra (maximum allowed mass deviations: precursor ions: ± 1.3 Da, fragment ions: ± 0.3 Da) using Mascot (version 2.1.03). The database was the Mass Spectrometry Database, MSDB (version 2005-02-27) restricted to chordata (vertebrates and relatives). We allowed one missed cleavage as well as charges 1+, 2+ and 3+. The mass values were monoisotopic. The significance level of the significance threshold score for the peptide hits was 0.05. Since the amino acid sequences of the 19 proteins of our mixtures are known, we could verify the identifications by sequence comparison with the protein sequences. To avoid random verifications, we restricted the peptide length to be equal or greater than six. The whole process led to two datasets for each protein mixture – one which only contained the verified peptides and the other one with all Mascot identifications. In this paper, we call the datasets containing the verified peptide sequences vds and the datasets with all Mascot identifications ds. The vdss are used to train the predictors and the dss are used to access the classification performance of the identification process.
We chose two standard peptides which were identified in all of the runs. One of these peptides, which had the amino acid sequence TCVADESHAGCEK, eluted very early and the other one, which had the amino acid sequence MPCTEDYLSLILNR, eluted very late. We scaled the retention times linearly so that the early eluting peptide got an NRT of 0.1 and the late eluting peptide an NRT of 0.9. All peptides with an NRT below zero or above 1 were removed. The lists of identified peptides of vds1, vds2 and vds3, together with their respective retention times, are available as Additional files 1, 2 and 3 in the supplementary material.

Consider “CCTESLVNR [verified tryptic peptide, vds1]”, for which the observed retention time stood at 360 and the “normalized retention time (NRT)” value is given as 0.2011.

Regarding “CCTKPESER [verified tryptic peptide, vds1]”, the observed retention time amounted to 47 and the “normalized retention time (NRT)” value turned out to be 0.05163.

For CLDGSR [verified tryptic peptide, vds1], the observed retention time was found to be 169 and the “normalized retention time (NRT)” value is 0.1101.

For “DDPHACYSTVFDK [verified tryptic peptide, vds1]”, the observed retention time is reported as 809 and the “normalized retention time (NRT)” value is 0.4159.

Regarding “DDPHACYSTVFDKLK [verified tryptic peptide, vds1]”, the observed retention time came out at 1174 and the “normalized retention time (NRT)” value came to 0.5908.

As to “DEYELLCLDGSR [verified tryptic peptide, vds1]”, the observed retention time is listed as 1144 and the “normalized retention time (NRT)” value worked out at 0.5761.

With “DKCEPLEK [verified tryptic peptide, vds1]”, the observed retention time is given as 129 and the “normalized retention time (NRT)” value was 0.09093.

“DVCKNYQEAK [verified tryptic peptide, vds1]”: the observed retention time came to 119 and the “normalized retention time (NRT)” value stood at 0.08607.

For the substance “ECCDKPLLEK [verified tryptic peptide, vds1]”, the observed retention time was found to be 459 and the “normalized retention time (NRT)” value stood at 0.2486.

For the substance “ECCHGDLLECADDR [verified tryptic peptide, vds1]”, the observed retention time is on record as 700 and the “normalized retention time (NRT)” value was found to be 0.364.

Take “ECNLAEVPTHAVVVRPEK [verified tryptic peptide, vds1]”: the observed retention time is on record as 1126 and the “normalized retention time (NRT)” value is reported as 0.5677.

Consider “EQLGEFYEALDCLR [verified tryptic peptide, vds1]”, for which the observed retention time was determined as 1723 and the “normalized retention time (NRT)” value worked out at 0.8534.

As to “EQLGEFYEALDCLRIPK [verified tryptic peptide, vds1]”, the observed retention time is reported as 1949 and the “normalized retention time (NRT)” value was 0.9614.

Consider “ETYGDMADCCEK [verified tryptic peptide, vds1]”, for which the observed retention time was determined as 490 and the “normalized retention time (NRT)” value turned out to be 0.2635.

In the case of “EYEATLEECCAK [verified tryptic peptide, vds1]”, the observed retention time was 628 and the “normalized retention time (NRT)” value turned out to be 0.3297.

Turning to “FFSASCVPGATIEQK [verified tryptic peptide, vds1]”, the observed retention time was 1189 and the “normalized retention time (NRT)” value stood at 0.5977.

In the case of “GACLLPK [verified tryptic peptide, vds1]”, the observed retention time was determined as 453 and the “normalized retention time (NRT)” value came out at 0.2458.

Take “GTFAALSELHCDK [verified tryptic peptide, vds1]”: the observed retention time was 1028 and the “normalized retention time (NRT)” value is reported as 0.5207.

For the substance “GTFAALSELHCDKLHVDPENFK [verified tryptic peptide, vds1]”, the observed retention time worked out at 1645 and the “normalized retention time (NRT)” value stood at 0.8158.

With “GYTLPPHCSR [verified tryptic peptide, vds1]”, the observed retention time was determined as 543 and the “normalized retention time (NRT)” value is reported as 0.2886.

With “IQWCAVGK [verified tryptic peptide, vds1]”, the observed retention time was 727 and the “normalized retention time (NRT)” value was 0.3767.

As to “KSCHTAVGR [verified tryptic peptide, vds1]”, the observed retention time came out at 59 and the “normalized retention time (NRT)” value was 0.05729.

As for “LCQLCQGSGGIPPEK [verified tryptic peptide, vds1]”, the observed retention time is on record as 855 and the “normalized retention time (NRT)” value turned out to be 0.4382.

On to “LFTFHADICTLPDTEK [verified tryptic peptide, vds1]”, for which the observed retention time amounted to 1608 and the “normalized retention time (NRT)” value was 0.7983.

Regarding “LKPDPNTLCDEFK [verified tryptic peptide, vds1]”, the observed retention time stood at 1112 and the “normalized retention time (NRT)” value is 0.5611.

Regarding “LRCASIQK [verified tryptic peptide, vds1]”, the observed retention time was 221 and the “normalized retention time (NRT)” value was 0.1348.

Take “MPCTEDYLSLILNR [late eluting standard peptide identified in all runs; verified tryptic peptide, vds1]”: the observed retention time is listed as 1821.

Regarding “NAPYSGYSGAFHCLK [verified tryptic peptide, vds1]”, the observed retention time is 1104 and the “normalized retention time (NRT)” value is reported as 0.5571.

For “NECFLSHKDDSPDLPK [verified tryptic peptide, vds1]”, the observed retention time was determined as 944 and the “normalized retention time (NRT)” value is on record as 0.4804.

For “NLQMDDFELLCTDGR [verified tryptic peptide, vds1]”, the observed retention time was determined as 1581 and the “normalized retention time (NRT)” value turned out to be 0.7853.

As for “NLQMDDFELLCTDGRR [verified tryptic peptide, vds1]”, the observed retention time is given as 1522 and the “normalized retention time (NRT)” value is on record as 0.7573.

As for “RPCFSALTPDETYVPK [verified tryptic peptide, vds1]”, the observed retention time was determined as 1337 and the “normalized retention time (NRT)” value was 0.6687.

For “SHCIAEVEK [verified tryptic peptide, vds1]”, the observed retention time amounted to 238 and the “normalized retention time (NRT)” value was 0.1429.

For “SLHTLFGDELCK [verified tryptic peptide, vds1]”, the observed retention time amounted to 1196 and the “normalized retention time (NRT)” value amounted to 0.6014.

As to “TCNPSDILQMCSFLEGK [verified tryptic peptide, vds1]”, the observed retention time was 1877 and the “normalized retention time (NRT)” value is on record as 0.9271.

Regarding “TCVADESHAGCEK [early eluting standard peptide identified in all runs; verified tryptic peptide, vds1]”, the observed retention time was 148.

With “TGTCNFDEYFSEGCAPGSPPNSR [verified tryptic peptide, vds1]”, the observed retention time came to 1370 and the “normalized retention time (NRT)” value turned out to be 0.6845.

Consider “TSCHTGLGR [verified tryptic peptide, vds1]”, for which the observed retention time was 76 and the “normalized retention time (NRT)” value came to 0.06527.

As to “VGGHAAEYGAEALER [verified tryptic peptide, vds1]”, the observed retention time was found to be 643 and the “normalized retention time (NRT)” value was determined as 0.3365.

With “WCTISSPEEK [verified tryptic peptide, vds1]”, the observed retention time is 697 and the “normalized retention time (NRT)” value was 0.3623.

Take “WSVVSNGDVECTVVDETK [verified tryptic peptide, vds1]”: the observed retention time is on record as 1250 and the “normalized retention time (NRT)” value was 0.6268.

Regarding “YICDNQDTISSK [verified tryptic peptide, vds1]”, the observed retention time worked out at 404 and the “normalized retention time (NRT)” value is reported as 0.2223.

With “YNGVFQECCQAEDK [verified tryptic peptide, vds1]”, the observed retention time stood at 775 and the “normalized retention time (NRT)” value turned out to be 0.3998.
